4 compounds from US9364493B2, “Methods and compositions for enhancing the uptake of therapeutic agents by target cells” (Tsinghua University, priority 2011, dated 2016) can be followed below.

In assay [1] the test system is Human microvascular endothelial cells (HMECs). As to the kind of experiment: Internalization of ES and its derivatives in blood vessel endothelial cells (Western Blotting). The assay is classed as cell-based. As to conditions: for effect on ES internalization in endothelial cells: tested in place of NT: AMB 25-50 μg/mL, methyl-β-cyclodextrin 1-2 mM, filipin 2.5-5 μg/mL; for increase of ES internalization: then ES 5 μg/mL 30 min, vs cells without NT. The source says:
Human microvascular endothelial cells (HMECs) were from ATCC (accession number CRL 10636). Mouse lymphatic endothelial cells (mLEC) were isolated via digesting peritoneal lymphoma induced by incomplete Freund's adjuvant injection (Zhuo W. et al, Journal of Pathology; 222:249-260). […] (SEQ ID NO:5) at N-terminal, the sequence of which is SEQ ID NO.3 or SEQ ID NO.4 because the first amino acid residue M will be randomly deleted when expressed in E. Coli. ES was obtained from Protgen Ltd., the amino acid sequence of which is SEQ ID NO.1 or SEQ ID NO.2 because the first amino acid residue M will be randomly deleted when expressed in E. Coli. Monomethoxy PEG propionaldehyde (mPEG-ALD) with an average molecular weight of 20 kDa (Jenkem Technology CO., Ltd.,) was used as the PEG reagent for specifically modifying the α-amino group at N-terminal of a protein. PEG-ES and PEG-Endu were prepared by Protgen Ltd. according to the instructions provided in the PEG reagent kit. Monoclonal antibody against ES was purchased from Oncogene Science, Inc. NT and other reagents were purchased from Sigma-Aldrich Co.
The endothelial cells were cultured to reach 90% confluence, and then pre-treated with DMEM medium (Hyclone) containing NT as follows. NT stock solution was added to the medium to a final concentration of 0 μg/mL, 25 μg/mL, or 50 μg/mL, and the culture was then incubated in a 5% CO2 atmosphere at 37° C. for 20 min for NT pre-treatment. After pre-treatment, ES stock solution (5 mg/ml) was added to the medium to a final concentration of 5 μg/mL. The culture was then incubated in a 5% CO2 atmosphere at 37° C. for 30 min to allow the internalization of ES by the endothelial cells. After removing the medium, the endothelial cells were washed with ice-cold PBS for 3 times and then collected. The ES internalization in whole cell lysate, cytosolic fraction, and nuclear fraction was examined by Western Blotting, compared with the cells without NT treatment.
Some other agents which share the same action mechanism as NT were also tested in place of in this example, such as AMB (25-50 μg/mL), methyl-β-cyclodextrin (1-2 mM), and filipin (2.5-5 μg/mL).
Other therapeutic agents which share the same action mechanism as ES can also be used in this example, such as PEG-modified ES. For this purpose, ES was modified with monomethoxy PEG propionaldehyde (mPEG-ALD) of 20 kDa which specifically modifies the N-terminal of a protein, and the product (PEG-ES) was an ES protein conjugated with one PEG molecule at the N-terminal α-amino group of ES.
(In western blotting, separated proteins are transferred to a membrane and probed.)

Assay [2] relates to Mouse lymphatic endothelial cells (mLEC). As to the kind of experiment: ES internalization in lymphatic endothelial cells (Western Blotting). The assay is classed as cell-based. As to conditions: then ES 2 μg/mL 15 min. The source says: Human microvascular endothelial cells (HMECs) were from ATCC (accession number CRL 10636). Mouse lymphatic endothelial cells (mLEC) were isolated via digesting peritoneal lymphoma induced by incomplete Freund's adjuvant injection (Zhuo W. et al, Journal of Pathology; 222:249-260). Endu was obtained from Simcere-Medgenn Bio-pharmaceutical Co., Ltd. Endu is a recombinant ES containing an additional amino acid sequence (M)GGSHHHHH (SEQ ID NO:5) at N-terminal, the sequence of which is SEQ ID NO.3 or SEQ ID NO.4 because the first amino acid residue M will be randomly deleted when expressed in E. Coli. ES was obtained from Protgen Ltd., the amino acid sequence of which is SEQ ID NO.1 or SEQ ID NO.2 because the first amino acid residue M will be randomly deleted when expressed in E. Coli. Monomethoxy PEG propionaldehyde (mPEG-ALD) with an average molecular weight of 20 kDa (Jenkem Technology CO., Ltd.,) was used as the PEG reagent for specifically modifying the α-amino group at N-terminal of a protein. PEG-ES and PEG-Endu were prepared by Protgen Ltd. according to the instructions provided in the PEG reagent kit. Monoclonal antibody against ES was purchased from Oncogene Science, Inc. NT and other reagents were purchased from Sigma-Aldrich Co.
The mLECs were pre-treated with DMEM (Hyclone) containing 0, 75, 150, or 300 μg/mL NT in a 5% CO2 atmosphere at 37° C. for 20 min. The cells were then incubated with culture media containing ES (final concentration of 2 μg/mL) in a 5% CO2 atmosphere at 37° C. for 15 min. After treatment, the cells were washed with PBS for 3 times, and then collected. The ES internalization in cells treated with NT at various concentrations was examined by Western Blotting.

Another assay concerns ERK pathway. As to the kind of experiment: ERK signaling pathway activation in endothelial cells (Western Blotting). The assay is classed as cell-based. The settings on record: NT 50 μg/mL 20 min and/or ES 5 μg/mL 30 min; vs negative control. As to the method:
(§1) In this example, endothelial cells were separated into four groups: (1) negative control group, neither NT treatment, nor ES treatment; (2) NT group, treatment with NT at 50 μg/mL for 20 min, without ES treatment; (3) ES group, treatment with ES at 5 μg/mL for 30 min, without NT treatment; (4) NT plus ES group, treatment with NT at 50 μg/mL for 20 min, followed by treatment with ES at 5 μg/mL for 30 min. After treatment with the same method as described in Example 1, cells were collected and the ERK and p38 MAPK pathways were examined.

Another assay has as its system p38 MAPK pathway. As to the kind of experiment: p38 MAPK signaling pathway activation in endothelial cells (Western Blotting). The assay is classed as cell-based. The settings on record: NT 50 μg/mL 20 min and/or ES 5 μg/mL 30 min; vs negative control. The procedure:
as §1

A further assay deals with HMEC. As to the kind of experiment: Transwell cell migration assay. The settings on record: NT 50 μg/mL alone; 10 ng/mL VEGF, 6 hours; vs negative control. The assay is classed as cell-based, human. The procedure: Cell migration assay: HMEC (2×10^4 cells per well) were seeded into DMEM (Hyclone) containing 0.5% FBS (Hyclone) and 10 ng/mL VEGF (PeproTech) on the upper layer of Transwell chambers (8 μm pores, Costar). ES (40 μg/mL) or NT (50 μg/mL) was added into both the upper and lower layers, and then the chambers were incubated in a 5% CO2 atmosphere at 37° C. for 6 hours to allow cell migration. […] The numbers of the cells migrated into the lower layer were counted and mean values were calculated. Experiments were performed in triplicate and each experiment was repeated twice.
In this example, endothelial cells were separated into four groups: (1) negative control group, neither NT treatment, nor ES treatment; (2) NT group, treatment with NT at 50 μg/mL, without ES treatment; (3) ES group, treatment with ES at 40 μg/mL, without NT treatment; (4) NT plus ES group, combined treatment with NT at 50 μg/mL and ES at 40 μg/mL. […] ES treatment (ES group) inhibited the transwell migration of endothelial cells by 61%.

In assay [3] the test system is Human lung adenocarcinoma A549 tumor. As to the kind of experiment: A549 lung adenocarcinoma tumor growth in nude mice. The assay is classed as in vivo. The settings on record: NT 6 mg/kg i.p. daily alone, fourteen daily injections; vs control group. As to the method:
Human lung adenocarcinoma A549 tumor cells (ATCC accession number CCL-185) at exponential growth were subcutaneously inoculated into 6-8 week-old nude mice (Vital River Laboratory Animal Technology Co., Ltd). When the tumor volume reached 100 mm^3, the tumor bearing nude mice were separated into four groups: (1) negative control, treatment with saline; (2) NT group, treatment with NT (6 mg/kg, intraperitoneal injection, daily), without ES treatment; (3) ES group, treatment with ES (12 mg/kg, intraperitoneal injection, daily), without NT treatment; (4) NT plus ES group, combined treatment with NT (6 mg/kg, intraperitoneal injection, daily) and ES (12 mg/kg, intraperitoneal injection, daily). After fourteen daily injections, mice were sacrificed, and the weight and volume of the tumors were measured.

In assay [4] the test system is tumor blood vessel endothelial cells (CD31) in A549 tumors. As to the kind of experiment: Tumor blood vessel formation assay (CD31 immunofluorescence), A549 mice. The assay is classed as in vivo, nude mice. The settings on record: NT 6 mg/kg plus ES 12 mg/kg vs ES alone, CD31 blood vessel area. An excerpt:
Tumor blood vessel formation assay: Tumors from A549 mice were resected, fixed and sectioned. Samples were detected with primary antibody against CD31 (the marker of tumor blood vessel endothelial cells) and FITC-labeled secondary antibody (Santa Cruz), and then observed with Nikon A1 laser scanning confocal microscope (LSCM). The sectional areas of blood vessels in randomly selected fields (400×) were quantified and averaged with the software of the LSCM system.

In a further assay the test system is H22 liver cancer. As to the kind of experiment: H22 liver cancer mouse model. The assay is classed as in vivo.
In assay [5] the test system is EGFR-expressing A549 cells. As to the kind of experiment: EGFR monoclonal antibody (Cetuximab) internalization in tumor cells (Western Blotting). The assay is classed as cell-based, human. As to conditions: NT 25 or 50 μg/mL pre-treatment 20 min, then Cetuximab 5 μg/mL 30 min; positively correlated to NT concentrations. As to the method:
EGFR-expressing A549 cells at exponential growth were cultured to reach 90% confluence and then pre-treated with DMEM medium containing NT as follows. NT stock solution was added to the medium to a final concentration of […], 25 μg/mL, or 50 μg/mL, and the culture was then incubated in a 5% CO2 atmosphere at 37° C. for 20 min for NT pre-treatment. After pre-treatment, EGFR monoclonal antibody (Cetuximab, Merck) stock solution (5 mg/ml) was added to the medium to a final concentration of 5 μg/mL. The culture was then incubated in a 5% CO2 atmosphere at 37° C. for 30 min to allow the internalization of EGFR monoclonal antibody by the […]. After treatment, the medium was removed, and the endothelial cells were washed with ice-cold PBS for 3 times and then collected. The EGFR monoclonal antibody internalization in cells was examined by Western Blotting, compared with EGFR monoclonal antibody internalization in cells without NT treatment.

The mark [6] stands for this setting: NT treatment, same dosage and treatment time, positively correlated to NT concentration.

Regarding `C[C@@H]1[C@H](O)[C@@H](C)/C=C/C=C/C=C/C=C/C=C/C=C/C=C/[C@H](O[C@@H]2O[C@H](C)[C@@H](O)[C@H](N)[C@@H]2O)C[C@@H]2O[C@](O)(C[C@@H](O)C[C@@H](O)[C@H](O)CC[C@@H](O)C[C@@H](O)CC(=O)O[C@H]1C)C[C@H](O)[C@H]2C(=O)O` [AMB, Amphotericin B], the “effect on ES internalization in endothelial cells” value (from here on “effect on ES internalization”) in assay [1] is recorded as “can increase ES internalization”.

Take `CCCCC[C@@H](O)[C@H]1C(=O)O[C@H](C)[C@@H](O)/C=C/C=C/C=C/C=C/C=C(\C)[C@@H](O)C[C@H](O)C[C@H](O)C[C@H](O)C[C@H](O)C[C@H](O)C[C@@H]1O` [filipin]: the “effect on ES internalization” value in assay [1] was “can increase ES internalization”.

As for `C[C@@H]1[C@H](O)[C@@H](C)/C=C/C=C/CC/C=C/C=C/C=C/C=C/C(O[C@H]2O[C@H](C)[C@@H](O)[C@H](N)[C@@H]2O)CC2O[C@](O)(CC(O)C(O)CCC(O)CC(O)CC(O)CC(=O)O[C@H]1C)CC(O)C2C(=O)O` (stereo partly shown) [NT, Nystatin], the “increase of ES internalization” value was “about 2 folds” in assay [1] (NT 25 μg/mL pre-treatment 20 min) and around 15 folds in [1] (NT 50 μg/mL pre-treatment 20 min). Besides, the “effect on PEG-ES internalization in blood vessel endothelial cells” value in [1] (NT treatment, same PEG-ES dosage and treatment time, positively correlated to NT concentration) is given as “increased”. Further, the “effect on Endu internalization in endothelial cells” value in [1] (setting [6]) is “increased”. Also, the “effect on PEG-Endu internalization in endothelial cells” value in assay [1] (setting [6]) is given as “increased”. The “increase of ES internalization in mLECs” value in [2] (NT 75 μg/mL pre-treatment 20 min) is listed as 16 fold; in assay [2] (NT 150 μg/mL pre-treatment 20 min), 32 fold; in assay [2] (NT 300 μg/mL pre-treatment 20 min), 78 fold. Moreover, in the assay with ERK pathway, the “effect on activation of ERK pathway” value is “did not influence”. The “effect on activation of p38 MAPK pathway” value in the assay with p38 MAPK pathway is listed as “did not influence”. The “effect on transwell migration of endothelial cells (in words)” value with HMEC is recorded as “did not substantially influence”. Moreover, in [3], the “effect on tumor growth (in words)” value was “did not influence tumor growth”. The “effect on inhibitory efficacy of ES on tumor blood vessel formation” value in [4] is on record as “potentiated”. Moreover, the “effect on antiangiogenesis activity of ES” value in the assay with H22 liver cancer (tumor blood vessel area) was “enhancement effect”. Further, the “effect on antitumor activity of ES” value in the assay on H22 liver cancer (tumor weight) is “enhancement effect”. Also, the “effect on Cetuximab internalization in the cells” value in [5] was “significantly increased”.

For the compound methyl-β-cyclodextrin, in assay [1], the “effect on ES internalization” value is recorded as “can increase ES internalization”.
